Test results from US20190084939A1, “ANALOGS OF FEXARAMINE AND METHODS OF MAKING AND USING” (Salk Institute for Biological Studies, priority 2014, published 2019).
“Also recorded” adds a separate entry of the source.

Columns and labels:
[1] = test system: FXR target gene expression; experiment: FXR target gene expression (qPCR) in tissues after PO or IP fexaramine; type: in vivo, C57BL/6J mice; conditions: for FXR target gene (SHP) expression in liver and kidney, IP versus PO / FXR target genes (IBABP, OSTα, FGF15) in the intestine / FXR target genes in liver or kidney: 100 mg/kg; for FXR target genes (IBABP, OSTα, FGF15) in the intestine / FXR target genes in liver or kidney: PO
Protocol: FIGS. 1A-1C are a comparative expression chart and two bar charts, respectively, illustrating increased levels of FXR target gene expression in the intestine relative to expression in the liver and kidney. 8 week-old C57BL/6J mice were treated with vehicle or fexaramine (100 mg/kg) via oral (PO) or intraperitoneal (IP) injection for three days (FIGS. 1A-1B) or five days (FIG. 1C).
FXR target gene expression was analyzed by qPCR. Gene expression was normalized against a vehicle-treated group.
Upon exploration of the in vivo effects of fexaramine (Fex) administration, it was discovered that due to ineffectual absorption, oral (PO) and intraperitoneal (IP) drug delivery produced very different effects (FIGS. 1D and 1E).

[2] = test system: diet-induced obesity (DIO) mice; experiment: chronic PO fexaramine in diet-induced obesity (DIO) mice; type: in vivo; conditions: for glucose tolerance and insulin sensitivity (GTT, ITT): PO 5 weeks
Protocol: FIGS. 2A-2G are graphs illustrating the reduction of diet-induced obesity and improvement in metabolic homeostasis with fexaramine. […] Data represent the mean±STD. Statistical analysis was performed with the Student's t test (*p<0.05, **p<0.01).
The physiological effects of fexaramine in established obesity (diet-induced obesity, DIO) models were evaluated. […]

chow-fed mice = experiment: chronic PO fexaramine in normal chow-fed mice; type: in vivo
Protocol: FIGS. 3A-3D are line graphs and a bar graph showing the effects of fexaramine administration in normal chow-fed mice. The mice were treated with vehicle or fexaramine (100 mg/kg) via PO for 5 weeks. Data represent the mean±STD. Statistical analysis as performed with the Student's t test (*p<0.05, **p<0.01).
To investigate the physiological effects of intestinal FXR activation by fexaramine, mice were subjected to chronic fexaramine (100 mg/kg Fex) PO treatment for 5 weeks.

ob/ob mice = experiment: fexaramine and deuterated analogs in ob/ob mice, 2 weeks; type: in vivo; conditions: 2 weeks at 50 mg/kg PO
Protocol: An in vivo study of fexaramine and selectively-deuterated fexaramine compounds (FIG. 29A) was performed. Briefly, ob/ob mice were treated daily with vehicle, Fex, or deuterated analogs (50 mg kg^−1) by oral (PO) gavage for 2 weeks. Subsequently, body weight, body temperature, fasting blood glucose and insulin levels, insulin secretion, and GLP1 section were measured, and glucose tolerance tests (GTTs) performed.

## COC(=O)/C=C/c1cccc(N(Cc2ccc(-c3ccc(N(C)C)cc3)cc2)C(=O)C2CCCCC2)c1 [Fexaramine, fexaramine]
[1]
  FXR target gene (SHP) expression in liver and kidney, IP versus PO: increases
  FXR target genes (IBABP, OSTα, FGF15) in the intestine: substantially enhances
  FXR target genes in liver or kidney: intestinally-restricted; also recorded: not in the liver or kidney
[1]; listed as Fex
  FXR target gene (SHP) expression in liver and kidney, IP versus PO: only seen in liver and kidney after IP treatment
  FXR target genes (IBABP, OSTα, FGF15) in the intestine: induced multiple FXR target genes in the intestine
  FXR target genes in liver or kidney: failed to affect
[1]; acute PO and IP, 100 mg/kg for five days
  induction of FXR target gene SHP throughout the intestine: robust induction
[2]; DIO mice
  BAT expression of ERRγ, PGC-1α, PGC-1β and target genes: induction
  PKA activity in BAT: increased PKA activity
  accumulation of lipid vesicles in brown adipose tissue (BAT): markedly reduced
  activity (ambulatory counts): more active than control mice
  bile acid pool size: reducing
  brown fat-like signature genes and respiratory capacity of stromal vascular fraction of inguinal adipose tissue: increased
  circulating FGF15: increase
  expression of TNFα, MCP-1, IL-1α and F4/80 in visceral and brown adipose depots: reduced
  fraction of lithocholic acid in circulating bile acids: increasing
  fraction of taurocholic acid in circulating bile acids: decreasing
  levels of IKK-ε and TBK1 in adipose tissue: reduced levels
  liver lipid droplets (histology): reduction in lipid droplets
  mTORC1 pathway, S6K phosphorylation in gonadal WAT: reduced S6K phosphorylation
  phosphorylation level of p38 in BAT: increased
  ratio of unconjugated to conjugated cholic acid: remarkably increased
  respiratory exchange ratio: No changes
  serum alanine aminotransferase (ALT) levels: decreased
  serum lactate levels: significantly decreased
  glucose tolerance and insulin sensitivity (GTT, ITT): improved glucose clearance; also recorded: improved insulin sensitivity
[2]; DIO mice, 100 mg/kg PO 5 weeks
  glucose, insulin, leptin, cholesterol and resistin levels: reduced
  increase of core body temperature: approximately 1.5 °C
  overall fat mass (MRI): reduced overall fat mass
  serum inflammatory cytokines TNFα, IL-1α, IL-1β, IL-17 and MCP-1: markedly decreased
  weight gain: prevented weight gain
  wet weights of subcutaneous and visceral adipose depots: significant reductions
[2]; DIO mice, 10, 50 or 100 mg/kg PO 5 weeks
  prevention of weight gain over doses: dose-dependent manner
[2]; DIO mice, listed as Fex
  glucose tolerance and insulin sensitivity (GTT, ITT): dose-dependent improvements
  respiratory exchange ratio: similar
  serum lactate levels: significantly reduced
[2]; DIO mice, RNA-Seq
  FGF15 expression in ileum: dramatically upregulated
[2]; DIO mice, RNA-sequencing
  OXPHOS gene changes in inguinal, gonadal and brown adipose depots: selectively enhance OXPHOS activity only in BAT
[2]; DIO mice, chronic treatment
  HSL phosphorylation and serum levels of free fatty acids: pronounced increase
  cross-sectional area of adipocytes in visceral depots: markedly reduced
  expression of mucosal defense genes Occludin and Muc2: increased expression
  hepatic CYP7A1 expression (mRNA and protein): significantly repressed
  hepatic expression of CYP8B1 and CYP27A1: not affected
  hepatic expression of gluconeogenic and lipogenic genes: reduced
  hepatic triglycerides: marked decrease
  liver FXR target genes SHP and BSEP: not altered
  serum catecholamine levels and β3-adrenergic receptor expression: increased
[2]; DIO mice, highest dose
  weight gain at the highest dose: almost completely abrogated
[2]; DIO mice, immunohistochemistry
  abundance of multi-locular, UCP1-expressing adipocytes in inguinal adipose tissue: substantial increase
[2]; DIO mice, versus vehicle
  food intake: not attributable to difference in food intake
[2]; DIO mice, weight-matched
  carbon dioxide production (VCO2): exhaled more carbon dioxide
  oxygen consumption (VO2): consistently higher
[2]; mouse, in vivo, po
  intestinal toxicity (histology of ileum and colon): no signs of intestinal toxicity
chow-fed mice; chow-fed mice, 100 mg/kg PO 5 weeks
  weight gain, basal metabolic activity and glucose tolerance: indistinguishable from vehicle-treated mice
chow-fed mice; normal chow-fed mice, range of doses
  glucose homeostasis: no effects observed
ob/ob mice
  body weight: do not affect body weight
  core body temperature: did increase core body temperature
  fasting blood glucose levels: does not significantly affect
